Read-outs that look alike come from different tables or passages of the source.
Legend:
[1] = tested on: SR cells (NPM-ALK, human anaplastic large cell lymphoma cells); assay: Proliferation inhibition (IC50) in SR cells, CCK8 (WST) reagent; format: cell-based; conditions: 72 h
Procedure: (§1) The ALK gene rearrangement positive cell line used was SR cells (NPM-ALK, human anaplastic large cell lymphoma cells). MDA-MB231 was a triple-negative breast cancer cell. Both SR cells and MDA-MB231 cells were purchased from ATCC.
The tumor cell line used was daily cultured in a 37° C. incubator containing 5% CO2. The medium was RPMI1640 supplemented with 10% FCS and Penicillin-Streptomycin.
The IC50 of the compound of the present disclosure was determined using Promega's Cell Titer Blue, Cell Titer GLO or commercially available WST reagents. The specific steps were as follows: the cells were seeded in a 96-well plate containing 100 microliters of RPMI medium containing serum at a number of 2000 cells/well. On the second day, the original drug and the compound of the present disclosure were serially diluted and added to the cells. After 72 hours of treatment with the compound of the present disclosure, the cell activity detection reagent was added to the culture medium for cell activity determination according to the instructions. The negative control was DMSO, and the positive control was the original drug, and the cells were treated in the same manner as the compound of the present disclosure. The growth inhibition of the compounds of the present disclosure on cells was plotted by Prism Graphpad software and the IC50 of the compounds of the present disclosure was counted from it.
We conducted dose-dependent experiments on the designed and synthesized compounds of the present disclosure in SR cells. […] The cells were treated with different concentrations of compounds (starting at 10 μM, 3 times dilution factor, 10 concentrations). After 72 hours, the cells were detected using CCK8 reagent (WST).

ALK protein = molecular target: T1, ALK protein (Homo sapiens, UniProt Q9UM73); assay: Western blot of ALK protein degradation in SR cells; format: cell-based
T1 construct: We studied the total ALK protein in the anaplastic large cell lymphoma cell line SR; host or cells: SR cells (human anaplastic large cell lymphoma); the other entry of the earlier key: NPM1 (P06748, Nucleophosmin)
Procedure: as §1, with “ATCC. The 293T cells overexpressing EML4-ALK G1202R were the cells constructed and verified for correct expression by this laboratory.” for “ATCC.”
Tumor cells were seeded in a 24-well plate containing 1 ml of RPMI1640 medium at 1.5-3×10^5 cells/well. The next day, the cells were treated with different concentrations of drugs. After 16 hours, the supernatant was removed and the cells were washed with PBS. The cells were placed on ice and the cells were treated with RIPA protein lysate containing Halt protease and phosphatase inhibitors. The lysate was centrifuged at 10000RPM at 4° C. for 10 minutes, and the supernatant was collected. The same amount of protein was added to the 4×SDS sample solution, denatured at 95° C. for 5 minutes and freezen to −20° C., or protein electrophoresis was directly performed. GenScript, a 4-20% gradient protein precast gel was used as the electrophoresis gel. The electrophoresis tank and related components were purchased from Bio-rad, and the electrophoresis conditions were equal pressure 120 v for 2 hours. PVDF membrane was used for the transfer membrane, and the transfer membrane system was placed on ice with an equal current of 400 mA for one hour. After transferring the membrane, it was sealed with TBST+5% milk powder for half an hour. For the specific steps of immunoblotting, refer to the antibody instructions of Cell Signaling Technology.
DC50 (the drug concentration corresponding to protein degradation to 50%) calculation: according to the gray value of the Western blotting band after the drug is processed, the relationship curve between the drug concentration and the gray value is fitted by Prism GraphPad software to calculate the drug concentration range corresponding half of the gray value.
The cells with different concentrations (0, 10, 50, 100, 500 nM) of Brigatinib were first treated in SR cells for 16 hours. Western blotting was used on cell lysate to detect the effect of Brigatinib on the content of ALK protein (FIG. 2).

[2] = SR cells, WST reagent, 72 hours, read-out: IC50 (half inhibitory concentration), Brigatinib series in lymphoma cell lines

T1 sequence (Q9UM73 with tags, fused parts or gaps): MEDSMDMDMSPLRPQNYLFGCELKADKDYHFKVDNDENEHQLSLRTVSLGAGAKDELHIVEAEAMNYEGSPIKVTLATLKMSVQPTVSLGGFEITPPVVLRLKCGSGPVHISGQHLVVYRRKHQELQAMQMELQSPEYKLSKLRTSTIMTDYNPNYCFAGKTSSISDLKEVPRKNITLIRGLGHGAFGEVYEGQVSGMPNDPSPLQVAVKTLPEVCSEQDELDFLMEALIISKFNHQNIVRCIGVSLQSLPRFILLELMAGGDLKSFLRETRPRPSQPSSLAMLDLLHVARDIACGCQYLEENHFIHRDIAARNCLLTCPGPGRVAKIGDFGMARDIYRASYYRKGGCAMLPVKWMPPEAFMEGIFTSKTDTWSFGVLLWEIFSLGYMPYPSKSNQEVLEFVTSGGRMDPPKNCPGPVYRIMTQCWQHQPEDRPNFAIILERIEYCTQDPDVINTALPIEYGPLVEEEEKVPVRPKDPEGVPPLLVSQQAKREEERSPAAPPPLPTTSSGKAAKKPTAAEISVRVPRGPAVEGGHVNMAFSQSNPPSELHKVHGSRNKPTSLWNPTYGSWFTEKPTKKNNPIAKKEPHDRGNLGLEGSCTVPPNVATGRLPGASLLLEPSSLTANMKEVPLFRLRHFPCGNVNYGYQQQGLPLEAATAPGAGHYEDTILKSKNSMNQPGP

| SMILES | IC50 [1, 2] [nM] | other results |
| --- | --- | --- |
| COc1cc(N2CCC(N3CCNCC3)CC2)ccc1Nc1ncc(Cl)c(Nc2ccccc2P(C)(C)=O)n1 [Brigatinib derivative C (SIAIS164005), (2-((5-Chloro-2-((2-methoxy-4-(4-(piperazin-1-yl)piperidin-1-yl)phenyl)amino)pyrimidin-4-yl)amino)phenyl) dimethyl phosphine oxide, reference compound] | 11.1 | degradation effect on ALK protein (ALK protein; 16 hours, concentrations up to 500 nM): no degradation effect |
| COc1cc(N2CCC(N3CCN(CCCCC#Cc4cccc5c4CN(C4CCC(=O)NC4=O)C5=O)CC3)CC2)ccc1Nc1ncc(Cl)c(Nc2ccccc2P(C)(C)=O)n1 (stereo not drawn) [SIAIS262040, 3-(4-(6-(4-(1-(4-((5-chloro-4-((2-(dimethylphosphono)phenyl)amino)pyrimidin-2-yl)amino)-3-methoxyphenyl)piperidin-4-yl)piperazin-1-yl)hex-1-yn-1-yl)-1-oxoisoindolin-2-yl)piperidine-2,6-dione] | 1.1 | DC50 (ALK protein; 16 hours, concentration range at half of the gray value, read-out: DC50 (half degradation concentration), Brigatinib series in lymphoma cell lines): 0.05 to 0.5 nM |
| CCc1cc2c(cc1N1CCC(N3CCN(C(=O)CNc4cccc5c4CN(C4CCC(=O)NC4=O)C5=O)CC3)CC1)C(C)(C)c1[nH]c3cc(C#N)ccc3c1C2=O (stereo not drawn) [SIAIS262091, 8-(4-(4-{(2-(2,6-dioxopiperidin-3-yl)-1-oxoisoindolin-4-yl)aminoacetyl)piperazin-1-yl)piperidin-1-yl)-9-ethyl-6,6-dimethyl-11-oxo-6,11-dihydro-5H-benzo[b]carbazole-3-carbonitrile] |  | IC50 ([1]; read-out: IC50 (half inhibitory concentration), Alectinib series in lymphoma cell lines, SR cells, WST reagent, 72 hours): ~0.34 nM; concentration from which a degradation effect on ALK protein is shown (ALK protein): less than 0.005 nM; DC50 (ALK protein; read-out: DC50 (half degradation concentration), Alectinib series in lymphoma cell lines, 16 hours, concentration range at half of the gray value): 0.05 to 0.5 nM |
| COc1cc(N2CCC(N3CCN(C(=O)COCCOCCNc4cccc5c4CN(C4CCC(=O)NC4=O)C5=O)CC3)CC2)ccc1Nc1ncc(Cl)c(Nc2ccccc2P(C)(C)=O)n1 (stereo not drawn) [SIAIS352054, 3-(4-((2-(2-(2-(4-(1-(4-((5-chloro-4-((2-(dimethylphosphono)phenyl)amino)pyrimidine-2-yl)amino)-3-methoxyphenyl)piperidin-4-yl)piperazin-1-yl)-2-oxoethoxy)ethoxy)ethyl)amino)-1-oxoisoindolin-2-yl)piperidine-2,6-dione] | 22 ± 10.9 |  |
| COc1cc(N2CCC(N3CCN(C(=O)COCCOCCOCCNc4cccc5c4CN(C4CCC(=O)NC4=O)C5=O)CC3)CC2)ccc1Nc1ncc(Cl)c(Nc2ccccc2P(C)(C)=O)n1 (stereo not drawn) [SIAIS352055, 3-(4-((2-(2-(2-(2-(4-(1-(4-((5-chloro-4-((2-(dimethylphosphono)phenyl)amino)pyrimidin-2-yl)amino)-3-methoxyphenyl)piperidin-4-yl)piperazin-1-yl)-2-oxoethoxy)ethoxy)ethoxy)ethyl)amino)-1-oxoisoindolin-2-yl)piperidine-2,6-dione] | 15 ± 4.4 |  |
| COc1cc(N2CCC(N3CCN(C(=O)COCCOCCOCCOCCNc4cccc5c4CN(C4CCC(=O)NC4=O)C5=O)CC3)CC2)ccc1Nc1ncc(Cl)c(Nc2ccccc2P(C)(C)=O)n1 (stereo not drawn) [SIAIS352056, 3-(4-((14-(4-(1-(4-((5-chloro-4-((2-(dimethylphosphono)phenyl)amino)pyrimidin-2-yl)amino)-3-methoxyphenyl)piperidin-4-yl)piperazin-1-yl)-14-oxo-3,6,9,12-tetraoxatetradecyl)amino)-1-oxoisoindolin-2-yl)piperidine-2,6-dione] | 84.5 ± 17.3 |  |
| COc1cc(N2CCC(N3CCN(C(=O)COCCOCCOCCOCCOCCNc4cccc5c4CN(C4CCC(=O)NC4=O)C5=O)CC3)CC2)ccc1Nc1ncc(Cl)c(Nc2ccccc2P(C)(C)=O)n1 (stereo not drawn) [SIAIS352057, 3-(4-((17-(4-(1-(4-((5-chloro-4-((2-(dimethylphosphono)phenyl)amino)pyrimidin-2-yl)amino)-3-methoxyphenyl)piperidin-4-yl)piperazin-1-yl)-17-oxo-3,6,9,12,15-pentaoxaheptadecyl)amino)-1-oxoisoindolin-2-yl)piperidine-2,6-dione] | 102 ± 43.9 |  |
| COc1cc(N2CCC(N(C)C(=O)CSc3cccc4c3CN(C3CCC(=O)NC3=O)C4=O)CC2)ccc1Nc1ncc(Cl)c(Nc2ccccc2P(C)(C)=O)n1 (stereo not drawn) [SIAIS353007, N-(1-(4-((5-chloro-4-((2-(dimethylphosphono)phenyl)amino)pyrimidin-2-yl)amino)-3-methoxyphenyl)piperidin-4-yl)-2-((2-(2,6-dioxopiperidin-3-yl)-1-oxoisoindolin-4-yl)thio)-N-methyl acetamide] | 17.1 ± 10.9 |  |
| COc1cc(N2CCC(N(C)C(=O)CCCCCSc3cccc4c3CN(C3CCC(=O)NC3=O)C4=O)CC2)ccc1Nc1ncc(Cl)c(Nc2ccccc2P(C)(C)=O)n1 (stereo not drawn) [SIAIS353009, N-(1-(4-((5-chloro-4-((2-(dimethylphosphono)phenyl)amino)pyrimidin-2-yl)amino)-3-methoxyphenyl)piperidin-4-yl)-6-((2-(2,6-dioxopiperidin-3-yl)-1-oxoisoindolin-4-yl)thio)-N-methyl hexanamide] | 10.5 ± 5.6 |  |
| COc1cc(N2CCC(N(C)CCCCCCSc3cccc4c3CN(C3CCC(=O)NC3=O)C4=O)CC2)ccc1Nc1ncc(Cl)c(Nc2ccccc2P(C)(C)=O)n1 (stereo not drawn) [SIAIS353041, 3-(4-((6-((1-(4-((5-chloro-4-((2-(dimethylphosphono)phenyl)amino)pyrimidin-2-yl)amino)-3-methoxyphenyl)piperidin-4-yl)(methyl)amino)hexyl)thio)-1-oxoisoindolin-2-yl)piperidine-2,6-dione] | 0.5 ± 0.2 |  |
| COc1cc(N2CCC(N(C)CCCCSc3cccc4c3CN(C3CCC(=O)NC3=O)C4=O)CC2)ccc1Nc1ncc(Cl)c(Nc2ccccc2P(C)(C)=O)n1 (stereo not drawn) [SIAIS353043, 3-(4-((4-((1-(4-((5-chloro-4-((2-(dimethylphosphono)phenyl)amino)pyrimidin-2-yl)amino)-3-methoxyphenyl)piperidin-4-yl) (methyl)amino)butyl)thio)-1-oxoisoindolin-2-yl)piperidine-2,6-dione] | 0.9 ± 0.2 |  |
| COc1cc(N2CCC(N(C)CCCCCSc3cccc4c3CN(C3CCC(=O)NC3=O)C4=O)CC2)ccc1Nc1ncc(Cl)c(Nc2ccccc2P(C)(C)=O)n1 (stereo not drawn) [SIAIS353044, 3-(4-((5-((1-(4-((5-chloro-4-((2-(dimethylphosphono)phenyl)amino)pyrimidin-2-yl)amino)-3-methoxyphenyl)piperidin-4-yl)(methyl)amino)pentyl)thio)-1-oxoisoindolin-2-yl)piperidine-2,6-dione] | 1.1 ± 0.2 |  |
| COc1cc(N2CCC(N(C)CCCC#Cc3cccc4c3CN(C3CCC(=O)NC3=O)C4=O)CC2)ccc1Nc1ncc(Cl)c(Nc2ccccc2P(C)(C)=O)n1 (stereo not drawn) [SIAIS353050, 3-(4-(5-((1-(4-((5-chloro-4-((2-(dimethylphosphono)phenyl)amino)pyrimidin-2-yl)amino)-3-methoxyphenyl)piperidin-4-yl)(methyl)amino)pent-1-yn-1-yl)-1-oxoisoindolin-2-yl)piperidine-2,6-dione] | 4.8 ± 0.1 |  |
| COc1cc(N2CCC(N3CCN(C(=O)NCCCCSc4cccc5c4CN(C4CCC(=O)NC4=O)C5=O)CC3)CC2)ccc1Nc1ncc(Cl)c(Nc2ccccc2P(C)(C)=O)n1 (stereo not drawn) [SIAIS353062, 4-(1-(4-((5-chloro-4-((2-(dimethylphosphono)phenyl)amino)pyrimidin-2-yl)amino)-3-methoxyphenyl)piperidin-4-yl)-N-(4-((2-(2,6-dioxopiperidin-3-yl)-1-oxoisoindolin-4-yl)thio)butyl)piperazine-1-carboxamide] | 0.6 ± 0.4 |  |

— US12390532B2, “ALK protein regulator and anti-tumor application thereof” (SHANGHAITECH UNIVERSITY, priority 2019, dated 2025)
